pIC50: −log10 of the molar value.
Legend:
Assay in all cases: Enzyme Assay
CDK2 (human) = CDK2 (human) (UniProt P24941)
MAPK14 (human) = MAPK14 (human) (UniProt Q16539)
PIK3CA (human) = PIK3CA (human) (UniProt P42336)
PIK3CG (human) = PIK3CG (human) (UniProt P48736)
Chain of PIK3CG (human) (P48736 whole entry, looked up): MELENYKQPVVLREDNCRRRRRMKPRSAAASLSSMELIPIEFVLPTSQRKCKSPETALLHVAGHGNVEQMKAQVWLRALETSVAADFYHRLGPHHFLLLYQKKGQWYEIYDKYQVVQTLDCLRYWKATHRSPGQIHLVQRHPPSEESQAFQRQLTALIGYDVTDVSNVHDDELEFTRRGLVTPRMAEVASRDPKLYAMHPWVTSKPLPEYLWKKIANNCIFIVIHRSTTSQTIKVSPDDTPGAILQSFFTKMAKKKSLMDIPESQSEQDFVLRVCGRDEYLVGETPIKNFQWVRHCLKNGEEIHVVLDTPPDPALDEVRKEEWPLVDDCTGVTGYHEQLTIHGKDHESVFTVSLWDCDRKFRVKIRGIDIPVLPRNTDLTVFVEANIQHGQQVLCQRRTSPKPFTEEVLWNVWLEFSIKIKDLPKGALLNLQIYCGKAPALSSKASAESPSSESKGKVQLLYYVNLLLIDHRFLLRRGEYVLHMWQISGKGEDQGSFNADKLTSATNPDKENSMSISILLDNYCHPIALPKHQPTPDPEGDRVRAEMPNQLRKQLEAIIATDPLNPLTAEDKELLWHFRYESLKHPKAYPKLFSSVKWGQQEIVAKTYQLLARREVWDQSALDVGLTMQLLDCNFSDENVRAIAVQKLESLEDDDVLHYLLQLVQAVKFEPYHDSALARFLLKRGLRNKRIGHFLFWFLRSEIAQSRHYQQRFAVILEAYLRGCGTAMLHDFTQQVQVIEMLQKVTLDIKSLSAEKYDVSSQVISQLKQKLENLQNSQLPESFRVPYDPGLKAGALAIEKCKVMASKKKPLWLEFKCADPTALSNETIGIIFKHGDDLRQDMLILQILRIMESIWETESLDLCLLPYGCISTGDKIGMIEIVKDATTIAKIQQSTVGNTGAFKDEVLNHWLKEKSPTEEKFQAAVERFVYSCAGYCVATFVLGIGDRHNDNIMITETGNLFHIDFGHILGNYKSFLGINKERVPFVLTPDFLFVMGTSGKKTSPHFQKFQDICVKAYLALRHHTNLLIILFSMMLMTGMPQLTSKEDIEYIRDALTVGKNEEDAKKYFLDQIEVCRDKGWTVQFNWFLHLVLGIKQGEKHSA

Chain of MAPK14 (human) (Q16539 whole entry, looked up): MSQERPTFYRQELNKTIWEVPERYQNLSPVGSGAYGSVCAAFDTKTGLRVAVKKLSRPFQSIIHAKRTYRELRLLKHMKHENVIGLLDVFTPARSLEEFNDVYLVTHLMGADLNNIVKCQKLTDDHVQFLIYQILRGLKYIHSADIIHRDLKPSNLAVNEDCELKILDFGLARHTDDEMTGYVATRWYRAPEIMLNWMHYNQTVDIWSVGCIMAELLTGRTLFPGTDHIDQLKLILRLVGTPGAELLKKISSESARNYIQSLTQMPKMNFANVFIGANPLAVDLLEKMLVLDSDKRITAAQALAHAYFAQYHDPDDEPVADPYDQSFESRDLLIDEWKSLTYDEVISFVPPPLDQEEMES
Chain of PIK3CA (human) (P42336 whole entry, looked up): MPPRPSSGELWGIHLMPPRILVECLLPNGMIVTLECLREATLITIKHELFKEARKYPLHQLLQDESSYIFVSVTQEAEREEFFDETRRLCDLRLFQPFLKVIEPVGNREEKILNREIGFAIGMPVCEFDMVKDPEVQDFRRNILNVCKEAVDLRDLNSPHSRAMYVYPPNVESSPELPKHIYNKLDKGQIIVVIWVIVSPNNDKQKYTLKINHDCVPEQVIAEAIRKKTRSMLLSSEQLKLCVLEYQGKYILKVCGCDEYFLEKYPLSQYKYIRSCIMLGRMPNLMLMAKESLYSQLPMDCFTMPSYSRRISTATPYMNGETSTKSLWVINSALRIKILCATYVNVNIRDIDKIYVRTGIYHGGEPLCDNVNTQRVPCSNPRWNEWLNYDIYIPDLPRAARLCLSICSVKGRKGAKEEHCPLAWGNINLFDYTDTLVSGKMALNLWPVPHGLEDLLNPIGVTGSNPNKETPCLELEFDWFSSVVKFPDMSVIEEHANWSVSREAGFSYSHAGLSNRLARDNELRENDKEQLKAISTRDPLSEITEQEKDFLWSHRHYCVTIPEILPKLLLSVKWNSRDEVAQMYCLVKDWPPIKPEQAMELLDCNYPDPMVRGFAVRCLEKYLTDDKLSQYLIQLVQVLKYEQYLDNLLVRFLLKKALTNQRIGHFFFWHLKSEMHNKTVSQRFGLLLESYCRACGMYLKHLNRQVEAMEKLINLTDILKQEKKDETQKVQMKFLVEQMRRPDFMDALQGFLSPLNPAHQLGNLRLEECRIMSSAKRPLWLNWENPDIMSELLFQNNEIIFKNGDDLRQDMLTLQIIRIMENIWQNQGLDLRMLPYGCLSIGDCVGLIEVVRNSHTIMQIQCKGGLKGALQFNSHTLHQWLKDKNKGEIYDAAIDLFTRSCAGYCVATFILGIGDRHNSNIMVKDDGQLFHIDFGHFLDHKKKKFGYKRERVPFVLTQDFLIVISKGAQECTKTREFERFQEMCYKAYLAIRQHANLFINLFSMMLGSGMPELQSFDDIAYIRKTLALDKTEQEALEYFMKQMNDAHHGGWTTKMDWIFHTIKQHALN

| SMILES | pIC50 (CDK2 (human)) | pIC50 (MAPK14 (human)) | pIC50 (PIK3CA (human)) | pIC50 (PIK3CG (human)) |
| --- | --- | --- | --- | --- |
| COc1cc2c(cc1OCCCN1CCN(C)CC1)ncc1c3ccc(C#N)cc3[nH]c21 | 6.32 | < 4.33 | – | – |
| COCCOc1cc2ncc3c4ccc(C#N)cc4[nH]c3c2cc1OC | 5.92 | < 4.34 | – | – |
| COc1cc2c(cc1OCCN(C)C)ncc1c3ccc(C#N)cc3[nH]c21 | 5.99 | < 4.31 | – | – |
| COc1cc2c(cc1OCCCN(C)C)ncc1c3ccc(C#N)cc3[nH]c21 | 5.36 | < 4.44 | < 5.14 | < 5.14 |

More lines, now with the values ahead:

| pIC50 (CDK2 (human)) | pIC50 (MAPK14 (human)) | pIC50 (PIK3CA (human)) | pIC50 (PIK3CG (human)) | SMILES |
| --- | --- | --- | --- | --- |
| 6.22 | < 4.05 | 5.77 | 5.47 | COc1cc2ncc3c4ccc(C#N)cc4[nH]c3c2cc1OC |
| 5.96 | < 4.30 | – | – | COc1cc2c(cc1OCC1CCCCN1C)ncc1c3ccc(C#N)cc3[nH]c21 (stereo not drawn) |
| 5.24 | 5.17 | – | – | COc1cc2c(cc1OC1CCN(C)CC1)ncc1c3ccc(C#N)cc3[nH]c21 |

Reference: the Kinase Knowledgebase extract (Sharma et al. 2016)
